Results on 2 molecules are retold here after ChEMBL document CHEMBL1201862, “PubChem BioAssay data set” (2004).

The source made the active and inactive calls.

Test [1] in a line: NIH/3T3 cell viability loss – mouse embryonic fibroblasts, dry powder, set 2, cytotoxicity control, dose response (AID 493247). Particulars: Fibroblast. In kind it is functional, cell-based.
Test [2] is described as follows: T. cruzi infection blockers in NIH3T3 cells – beta-gal luminescence, NIH3T3 host cells, confirmation (AID 2630). In kind it is functional, cell-based. Particulars: Mus musculus.
The subject of another test is Trypanosoma cruzi. Kind of test: anti-trypanosomal activity in host cells – cell-based, plate reader, dry powder, set 3, dose response (AID 493197). The format is functional.
Test [3] has as its target DNA dC->dU-editing enzyme APOBEC-3A (Homo sapiens, UniProt P31941). Kind of test: A3A deaminase inhibition for selectivity – biochemical, dose response (AID 504722). In kind it is functional.
Test [4] concerns the target T1, Small ubiquitin-related modifier 1 (Homo sapiens, UniProt P63165). Kind of test: SUMO1 protein-protein binding blockers, potency – biochemical, FRET, dose response (AID 624383). Particulars: read-out: IC50_Mean. In kind it is functional.
The target in test [5] is T1, Small ubiquitin-related modifier 1. Kind of test: SUMO1 protein interaction blockers, potency – biochemical, fluorescence polarization, uHTS hits, dose response (AID 624382). In kind it is functional. Particulars: read-out: IC50_Mean. (Fluorescence polarisation rises when a labelled molecule tumbles more slowly, as on binding a larger partner.)
Test [6] has as its target DNA dC->dU-editing enzyme APOBEC-3G (Homo sapiens, UniProt Q9HC16). Kind of test: Dose Response confirmation of small molecule APOBEC3G DNA Deaminase Inhibitors via a fluorescence-based single-stranded DNA deaminase assay. [Related pubchem assays (depositor defined):AID493012, AID493028]. The format is functional.
For test [7], the target named is T2, Apoptotic protease-activating factor 1 (Homo sapiens, UniProt O14727).
T2 sequence (O14727 whole entry): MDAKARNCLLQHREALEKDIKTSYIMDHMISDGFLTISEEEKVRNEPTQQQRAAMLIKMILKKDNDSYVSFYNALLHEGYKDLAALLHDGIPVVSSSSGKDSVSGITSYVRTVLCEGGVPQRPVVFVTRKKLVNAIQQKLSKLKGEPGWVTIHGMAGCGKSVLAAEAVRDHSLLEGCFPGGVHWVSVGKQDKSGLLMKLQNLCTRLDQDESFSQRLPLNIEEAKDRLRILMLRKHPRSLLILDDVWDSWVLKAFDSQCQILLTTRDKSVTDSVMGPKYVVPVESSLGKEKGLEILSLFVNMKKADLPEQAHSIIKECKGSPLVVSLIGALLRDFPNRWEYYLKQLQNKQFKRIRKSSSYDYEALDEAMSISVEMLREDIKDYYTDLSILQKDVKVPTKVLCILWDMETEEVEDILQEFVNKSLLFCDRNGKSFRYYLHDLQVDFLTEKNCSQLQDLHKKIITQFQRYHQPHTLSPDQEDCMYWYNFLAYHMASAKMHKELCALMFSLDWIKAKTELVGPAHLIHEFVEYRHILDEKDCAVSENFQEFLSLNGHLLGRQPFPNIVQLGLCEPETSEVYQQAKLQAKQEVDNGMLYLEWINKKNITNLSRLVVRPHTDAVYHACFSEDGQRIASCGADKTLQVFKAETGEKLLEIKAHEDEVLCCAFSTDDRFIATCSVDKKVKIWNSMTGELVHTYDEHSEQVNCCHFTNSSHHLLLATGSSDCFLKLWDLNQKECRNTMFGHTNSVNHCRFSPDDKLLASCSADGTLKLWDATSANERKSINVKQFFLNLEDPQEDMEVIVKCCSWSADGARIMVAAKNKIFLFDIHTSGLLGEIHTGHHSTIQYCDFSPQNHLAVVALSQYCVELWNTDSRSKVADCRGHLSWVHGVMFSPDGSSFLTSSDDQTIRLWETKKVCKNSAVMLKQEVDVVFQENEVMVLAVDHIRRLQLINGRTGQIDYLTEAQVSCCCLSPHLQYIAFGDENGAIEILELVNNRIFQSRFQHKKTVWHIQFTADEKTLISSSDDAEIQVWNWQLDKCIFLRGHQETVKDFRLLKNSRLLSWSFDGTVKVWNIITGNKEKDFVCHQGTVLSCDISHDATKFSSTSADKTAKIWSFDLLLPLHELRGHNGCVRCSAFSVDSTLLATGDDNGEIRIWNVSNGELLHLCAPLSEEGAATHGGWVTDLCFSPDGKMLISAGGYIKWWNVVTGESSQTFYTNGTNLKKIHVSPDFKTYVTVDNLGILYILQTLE
Kind of test: activation of Apaf-1 mediated apoptosis – fluorescent, uHTS hits, dose response (AID 588554). The format is functional.

T1 sequence (P63165 whole entry): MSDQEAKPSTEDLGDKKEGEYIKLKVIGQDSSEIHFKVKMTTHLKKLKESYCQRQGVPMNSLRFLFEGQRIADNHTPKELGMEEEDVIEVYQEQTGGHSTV
DNA dC->dU-editing enzyme APOBEC-3G, sequence (Q9HC16 whole entry): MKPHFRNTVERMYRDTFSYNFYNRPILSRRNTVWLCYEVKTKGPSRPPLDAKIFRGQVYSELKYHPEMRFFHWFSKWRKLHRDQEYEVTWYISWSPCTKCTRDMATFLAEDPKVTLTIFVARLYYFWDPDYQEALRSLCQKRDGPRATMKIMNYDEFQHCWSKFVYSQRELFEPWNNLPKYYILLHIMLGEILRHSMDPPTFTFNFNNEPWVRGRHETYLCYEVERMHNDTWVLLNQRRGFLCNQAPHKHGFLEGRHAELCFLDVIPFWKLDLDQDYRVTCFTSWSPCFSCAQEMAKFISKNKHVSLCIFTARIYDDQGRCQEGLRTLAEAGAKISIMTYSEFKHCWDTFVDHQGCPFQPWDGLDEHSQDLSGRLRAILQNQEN
DNA dC->dU-editing enzyme APOBEC-3A, sequence (P31941 whole entry): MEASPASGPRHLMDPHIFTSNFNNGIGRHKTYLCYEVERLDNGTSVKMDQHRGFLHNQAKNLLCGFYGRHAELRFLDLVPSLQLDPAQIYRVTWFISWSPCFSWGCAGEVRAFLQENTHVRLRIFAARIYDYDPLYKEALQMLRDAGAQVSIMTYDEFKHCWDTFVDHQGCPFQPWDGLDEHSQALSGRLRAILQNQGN

Usually AC50 stands for the midpoint of the concentration-response curve, whichever way the signal moves. As a reminder, the EC50 is the concentration needed to bring the measured effect to its halfway point. On to `COc1ccccc1CN1CCCC(C(=O)N(C)Cc2ccccc2)C1` (stereo not drawn), for which the AC50 in test [1] is 73.3 µM (active); in the test on Trypanosoma cruzi it was 10.8 µM (active). The concentration giving a half-maximal response (EC50) in test [2] is 0.856 µM (active).
As for `C=C(C)C(=O)Nc1cccc(C2=NOC3(C2)C[C@H](C(N)=O)N(C(=O)c2ccccc2C(=O)c2ccccc2)C3)c1` (stereo partly drawn), the IC50 in test [3] was > 100 µM (inactive); in test [4], 2.73 µM (active); in test [5], > 66.6 µM (inactive); in test [6], 8.19 µM (active). Also, in test [7], the EC50 is 3.71 µM (active).
